Data as given in patent US20220324865A1 (Bayer Aktiengesellschaft, priority 2018, published 2022).

The compounds below were run against T1, human EP3 receptor (Homo sapiens, UniProt P43115) (assay: Cellular in vitro assay for determining EP3 receptor activity (human EP3 cell line, sulprostone-stimulated calcium luminescence)). Settings: CHO cells expressing human EP3 and mitochondrial Clytin; antagonist mode, sulprostone at EC50; read-out: EP3 CHO mtCLY ANTAG IC50.
T1 construct: expressed in transfected cells; host or cells: CHO K1 (Chinese Hamster Ovary), stably co-transfected with Galpha16 and mitochondrial clytin
T1 sequence (P43115 1-390): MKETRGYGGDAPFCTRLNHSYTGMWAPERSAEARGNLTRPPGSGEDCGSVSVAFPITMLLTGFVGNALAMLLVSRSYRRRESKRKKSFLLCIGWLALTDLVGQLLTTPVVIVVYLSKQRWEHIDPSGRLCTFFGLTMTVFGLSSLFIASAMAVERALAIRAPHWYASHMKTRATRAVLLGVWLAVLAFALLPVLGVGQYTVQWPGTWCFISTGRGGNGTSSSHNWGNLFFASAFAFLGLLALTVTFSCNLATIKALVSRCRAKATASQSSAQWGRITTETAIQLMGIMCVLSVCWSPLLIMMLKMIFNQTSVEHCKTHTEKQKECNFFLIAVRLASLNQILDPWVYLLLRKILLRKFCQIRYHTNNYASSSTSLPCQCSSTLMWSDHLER
Assay type: cell-based
Summary of the method: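 CHO K1 cells stably expressing human EP3 with Gα16 and mitochondrial Clytin, loaded overnight with coelenterazine. Compounds added 10 min before sulprostone at its EC50; antagonism read immediately as reduced calcium-driven luminescence, quadruplicate points.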

Row | Compound | IC50 [nM]
1 | Cc1ccc(-c2cn3nc(C(=O)NCC(C)(N)C(F)(F)F)c(C(F)(F)F)c3c(=O)[nH]2)cc1Cl (single isomer, unassigned) [6-170] | 2.1
2 | COc1ccc(C2(NC(=O)c3cc4c(=O)[nH]c(-c5ccc(C)c(C)c5)cn4n3)CN(C(C)=O)C2)cc1 [Example 1-156, N-[1-Acetyl-3-(4-methoxyphenyl)azetidin-3-yl]-6-(3,4-dimethylphenyl)-4-oxo-5H-pyrazolo[1,5-a]-pyrazine-2-carboxamide] | 3.05
3 | Cc1cccc2ncc(-c3cn4nc(C(=O)NCCOCC(F)(F)F)c(C(C)C)c4c(=O)[nH]3)cc12 [Example 4-39, 6-(5-Methylquinolin-3-yl)-4-oxo-3-(propan-2-yl)-N-[2-(2,2,2-trifluoroethoxy)ethyl]-4,5-dihydropyrazolo[1,5-a]pyrazine-2-carboxamide] | 1.85
4 | Cc1cccc2ncc(-c3cn4nc(C(=O)NCC(N)=O)c(C(C)C)c4c(=O)[nH]3)cc12 [Example 4-31, N-(2-Amino-2-oxoethyl)-6-(5-methylquinolin-3-yl)-4-oxo-3-(propan-2-yl)-4,5-dihydropyrazolo[1,5-a]pyrazine-2-carboxamide] | 7.4
5 | Cc1cc(-c2cn3nc(C(=O)NCC(C)(N)C(F)(F)F)c(C4CC4)c3c(=O)[nH]2)ccc1Cl (single isomer, unassigned) [6-320] | 1.35
6 | CCC(CNC(=O)c1cc2c(=O)[nH]c(-c3ccc4ccccc4c3)cn2n1)n1cc(Cl)cn1 (centres unmarked) [Example 2-10, N-[2-(4-Chlor-1H-pyrazol-1-yl)butyl]-6-(2-naphthyl)-4-oxo-4,5-dihydropyrazolo[1,5-a]pyrazine-2-carboxamide] | 1.7
7 | CCCc1c(C(=O)NC2(c3ccc(F)cc3)CN(C)C2)nn2cc(-c3ccc(C)c(C)c3)[nH]c(=O)c12 [6-616] | 0.78
8 | O=C(NC(CO)C(F)(F)F)c1nn2cc(-c3ccc(Cl)c(F)c3)[nH]c(=O)c2c1C1CC1 (single isomer, unassigned) [6-94] | 5.8
9 | CC(NC(=O)c1cc2c(=O)[nH]c(-c3ccc4ccccc4c3)cn2n1)c1cnc(OCC(F)(F)F)cn1 (centres unmarked) [6-7] | 7
10 | Cc1cc(-c2cn3nc(C(=O)N[C@H](CCO)c4ccc(F)cc4)c(C(F)(F)F)c3c(=O)[nH]2)ccc1Cl [6-233] | 0.37
11 | Cc1ccc(-c2cn3nc(C(=O)NCC(O)C(F)F)c(C4CC4)c3c(=O)[nH]2)cc1F (racemic) [6-369] | 3.05
12 | CCn1cc(CNC(=O)c2nn3cc(-c4ccc5ccccc5c4)[nH]c(=O)c3c2C#N)c(C)n1 [Example 3-44, 3-Cyano-N-[(1-ethyl-3-methyl-1H-pyrazol-4-yl)methyl]-6-(naphthalen-2-yl)-4-oxo-4,5-dihydropyrazolo[1,5-a]pyrazine-2-carboxamide] | 2.6
13 | CC(C)C(CNC(=O)c1cc2c(=O)[nH]c(-c3ccc4ccccc4c3)cn2n1)n1cc(Cl)cn1 (centres unmarked) [Example 2-22, N-[2-(4-Chlor-1H-pyrazol-1-yl)-3-methylbutyl]-6-(2-naphthyl)-4-oxo-4,5-dihydropyrazolo[1,5-a]pyrazine-2-carboxamide] | 3.85
14 | Cc1cccc2ncc(-c3cn4nc(C(=O)N[C@H](C)c5ccc(F)cc5)cc4c(=O)[nH]3)cc12 [6-64] | 2.5
15 | COCc1c(C(=O)N[C@H](CCO)c2ccccc2)nn2cc(-c3ccc4ccccc4c3)[nH]c(=O)c12 [Example 1-76, N-[(1R)-3-Hydroxy-1-phenylpropyl]-3-(methoxymethyl)-6-(naphthalen-2-yl)-4-oxo-4,5-dihydropyrazolo[1,5-a]pyrazine-2-carboxamide] | 0.725
16 | N#Cc1c(C(=O)N[C@@H](CCO)c2ccc(F)cc2)nn2cc(-c3ccc4ccccc4c3)[nH]c(=O)c12 [Example 1-72, 3-Cyano-N-[(1S)-1-(4-fluorophenyl)-3-hydroxpropyl]-6-(naphthalen-2-yl)-4-oxo-4,5-dihydropyrazolo[1,5-a]pyrazine-2-carboxamide] | 6.55
17 | Cc1ccc(-c2cn3nc(C(=O)N[C@@H](c4ccc(F)cc4)C(C)(C)O)c(CC(F)(F)F)c3c(=O)[nH]2)cc1F [6-633] | 3.5
18 | COc1ccc(C(CCO)NC(=O)c2cc3c(=O)[nH]c(-c4ccc5ccccc5c4)cn3n2)cc1 (centres unmarked) [Example 2-2, N-[3-Hydroxy-1-(4-methoxyphenyl)propyl]-6-(2-naphthyl)-4-oxo-4,5-dihydropyrazolo[1,5-a]pyrazine-2-carboxamide] | 1.18
19 | Cc1ccc(-c2cn3nc(C(=O)N[C@@H](CO)C(F)(F)F)c(C4CC4)c3c(=O)[nH]2)cc1F [6-393] | 0.85

Row | Compound | IC50 [nM]
20 | Cc1ccc(-c2cn3nc(C(=O)NCCN(CC(F)F)C4CC4)c(C4CC4)c3c(=O)[nH]2)cc1F [6-379] | 1.8
21 | Cc1cc(-c2cn3nc(C(=O)N[C@H](C)C(C)C)c(C4CC4)c3c(=O)[nH]2)ccc1C(F)(F)F [Example 1-139, 3-Cyclopropyl-N-[(2R)-3-methylbutan-2-yl]-6-[3-methyl-4-(trifluoromethyl)phenyl]-4-oxo-4,5-dihydropyrazolo[1,5-a]pyrazine-2-carboxamide] | 7.55
22 | Cc1ccc(-c2cn3nc(C(=O)N[C@@H](C)C4CC4)c(C4CC4)c3c(=O)[nH]2)cc1F [6-380] | 1.3
23 | Cc1c(C(=O)NC(C)c2ccc(S(N)(=O)=O)cc2)nn2c(C)c(-c3ccc4ccccc4c3)[nH]c(=O)c12 (centres unmarked) [Example 3-18, 3,7-Dimethyl-6-(2-naphthyl)-4-oxo-N-[1-(4-sulfamoylphenyl)ethyl]-5H-pyrazolo[1,5-a]pyrazine-2-carboxamide] | 3.75
24 | Cc1ccc(-c2cn3nc(C(=O)NC4CCN(CC(F)F)C4)c(C4CC4)c3c(=O)[nH]2)cc1C (single isomer, unassigned) [6-454] | 4.75
25 | C[C@@H](CN1CC(F)C1)NC(=O)c1nn2cc(-c3ccc4ccccc4c3)[nH]c(=O)c2c1C(F)(F)F [6-514] | 9.25
26 | O=C(NCC(O)C(F)(F)F)c1nn2cc(-c3ccc(Cl)c(Cl)c3)[nH]c(=O)c2c1C1CC1 (single isomer, unassigned) [6-417] | 1.85
27 | Cc1cc(-c2cn3nc(C(=O)NCC(N)C(F)(F)F)c(C4CC4)c3c(=O)[nH]2)ccc1C(F)(F)F (single isomer, unassigned) [6-132] | 7.6
28 | Cc1ccc(-c2cn3nc(C(=O)N[C@H](CCO)c4ccccc4)cc3c(=O)[nH]2)cc1C [Example 1-14, 6-(3,4-Dimethylphenyl)-N-[(1R)-3-hydroxy-1-phenylpropyl]-4-oxo-4,5-dihydropyrazolo[1,5-a]-pyrazine-2-carboxamide] | 0.14
29 | COc1ccc(CNC(=O)c2cc3c(=O)[nH]c(-c4ccc5c(c4)N(C)CCO5)cn3n2)cc1OC [Example 1-16, N-(3,4-Dimethoxybenzyl)-6-(4-methyl-3,4-dihydro-2H-1,4-benzoxazin-6-yl)-4-oxo-4,5-dihydropyrazolo[1,5-a]pyrazine-2-carboxamide] | 2
30 | Cc1ccc(-c2cn3nc(C(=O)NC4(C)CCC4)cc3c(=O)[nH]2)cc1C [Example 5-5, 6-(3,4-Dimethylphenyl)-N-(1-methylcyclobutyl)-4-oxo-4,5-dihydropyrazolo[1,5-a]pyrazine-2-carboxamide] | 6.7
31 | COC[C@@H](NC(=O)c1cc2c(=O)[nH]c(-c3ccc(C)c(C)c3)cn2n1)c1ccccc1 [Example 1-13, 6-(3,4-Dimethylphenyl)-N-[(1S)-2-methoxy-1-phenylethyl]-4-oxo-4,5-dihydropyrazolo[1,5-a]-pyrazine-2-carboxamide] | 1.15
32 | Cc1cc(-c2cn3nc(C(=O)NCCC(O)C(F)(F)F)c(C4CC4)c3c(=O)[nH]2)ccc1Cl (single isomer, unassigned) [6-310] | 0.91
33 | Cc1ccc(-c2cn3nc(C(=O)NC(CCO)c4ccc(C(F)(F)F)cc4)cc3c(=O)[nH]2)cc1C (centres unmarked) [Example 1-86, 6-(3,4-Dimethylphenyl)-N-[3-hydroxy-1-[4-(trifluoromethyl)phenyl]propyl]-4-oxo-5H-pyrazolo-[1,5-a]pyrazine-2-carboxamide] | 0.715
34 | CCN(CCO)CC(NC(=O)c1nn2cc(-c3ccc4ccccc4c3)[nH]c(=O)c2c1C(F)(F)F)c1ccccc1 (centres unmarked) [Example 1-28, N-[2-[Ethyl(2-hydroxyethyl)amino]-1-phenylethyl]-6-(2-naphthyl)-4-oxo-3-(trifluoromethyl)-5H-pyrazolo[1,5-a]pyrazine-2-carboxamide] | 0.855
35 | Cc1c(C(=O)NC2(c3ccccc3)CCOCC2)nn2c(C)c(-c3ccc4ccccc4c3)[nH]c(=O)c12 [Example 3-34, 3,7-Dimethyl-6-(2-naphthyl)-4-oxo-N-(4-phenyltetrahydro-2H-pyran-4-yl)-4,5-dihydropyrazolo[1,5-a]pyrazine-2-carboxamide] | 6.05
36 | Cc1ccc(-c2cn3nc(C(=O)NC(c4ccc(C(F)(F)F)cc4)C(C)(C)O)c(C4CC4)c3c(=O)[nH]2)cc1C (single isomer, unassigned) [6-459] | 5.6
37 | Cc1ccc(-c2cn3nc(C(=O)NC(c4ccccc4)C(O)C(F)(F)F)c(C)c3c(=O)[nH]2)cc1F (centres unmarked) [6-407] | 1.03
38 | Cc1cccc2ncc(-c3cn4nc(C(=O)NC5(c6ccccc6)CCCC5)c(C(C)C)c4c(=O)[nH]3)cc12 [Example 4-73, 6-(5-Methylquinolin-3-yl)-4-oxo-N-(1-phenylcyclopentyl)-3-(propan-2-yl)-4,5-dihydropyrazolo[1,5-a]pyrazine-2-carboxamide] | 2.35
